In patent US20060106005A1, “Funtionalised metallocenes as anticancer drugs” (priority 2003, published 2006):
Read-outs that look alike come from different tables or passages of the source.

Key:
LoVo = experiment: Sensitivity of cell lines to Cisplatin and Ti compounds (LoVo); type: cell-based; conditions: for relative sensitivity of cell lines: LoVo (reference line = 1)
A2780 = experiment: Sensitivity of cell lines to Cisplatin and Ti compounds (A2780); type: cell-based; conditions: for relative sensitivity of cell lines: A2780, relative to LoVo; for DIFFERENTIAL: IC50 of 2 relative to Cisplatin
LS 174T = experiment: Sensitivity of cell lines to Cisplatin and Ti compounds (LS 174T); type: cell-based; conditions: for relative sensitivity of cell lines: LS-174T, relative to LoVo
A2780-cis = experiment: Anti-proliferative effect on cisplatin-resistant A2780-cis; type: cell-based; conditions: for relative sensitivity of A2780 and A2780cis cell lines: relative to A2780 144 hr; for relative sensitivity of cell lines: relative to LoVo; for DIFFERENTIAL: IC50 of 2 relative to Cisplatin
Description: In order to determine whether these types of complexes overcome platinum resistance in vitro, the anti-proliferative effects of 2 on cisplatin-resistant […] were examined (see Table 3).

MCF-7 = experiment: Sensitivity of cell lines to Cisplatin and Ti compounds (MCF-7); type: cell-based; conditions: for relative sensitivity of cell lines: MCF-7, relative to LoVo
[1] = test system: xenografted tumours of the colon, head, breast, rectum, lung and stomach; conditions: in vivo; cited from earlier work
LX1 = conditions: LX1, histologically unclassified lung tumour; cited from earlier work
[2] = test system: certain cancer cell lines; conditions: compared to Cp2TiCl2
[3] = A2780 (24 hour), read-out: IC50
[4] = A2780, exposure time 24 hr, relative to A2780 144 hr
[5] = A2780, exposure time 144 hr (reference = 1)
[6] = A2780-cis (24 hour), read-out: IC50

Row | Compound | IC50 (LoVo; LoVo) | relative sensitivity of cell lines (LoVo) | IC50 (A2780; [3]) | relative sensitivity of A2780 and A2780cis cell lines (A2780; [4]) | relative sensitivity of A2780 and A2780cis cell lines (A2780; [5]) | relative sensitivity of cell lines (A2780) | IC50 (A2780; A2780, read-out: IC50) | IC50 (LS 174T; LS 174T) | relative sensitivity of cell lines (LS 174T) | IC50 (A2780-cis; [6]) | IC50 (A2780-cis; A2780-cis, read-out: IC50) | relative sensitivity of A2780 and A2780cis cell lines (A2780-cis; A2780cis, exposure time 24 hr) | relative sensitivity of A2780 and A2780cis cell lines (A2780-cis; A2780cis, exposure time 144 hr) | relative sensitivity of cell lines (A2780-cis; A2780cis) | relative sensitivity of cell lines (MCF-7) | anti-tumour activity against LX1 (LX1) | also measured
1 | N.N.[Cl][Pt][Cl] [Cisplatin, cisplatin, reference compound] | 0.37 µM | 1 | 1 µM | 1.22 | 1 | 2.2 | 0.82 µM | 0.5 µM | 1.35 | 5.4 µM | 2.1 µM | 6.59 | 2.56 | 5.7 | 24.3 | – | resistance relative to 2 (times more resistant) (A2780-cis; cisplatin-resistant A2780, after 144 hours): 3 times
2 | C1=C[CH]([Ti+2][CH]2C=CC=C2)C=C1.[Cl-].[Cl-].[Ti+2].c1cc[cH-]c1.c1cc[cH-]c1 [Cp2TiCl2, titanocene (bis-cyclopentadienyl titanium)dichloride] | – | – | – | – | – | – | – | – | – | – | – | – | – | – | – | no significant anti-tumour activity | sensitivity of xenografted tumours [1]: significantly sensitive
3 | [Cl-].[Cl-].[V+4].c1cc[cH-]c1.c1cc[cH-]c1 [Cp2VCl2, vanadocene(bis-cyclopentadienyl vanadium)dichloride] | – | – | – | – | – | – | – | – | – | – | – | – | – | – | – | significant activity | –
4 | [Cp(CH2)2NH(CH2)5]2TiCl2.2HCl [compound 2] | 62 µM | 1 | 168 µM | 5.42 | 1 | 0.5 | 31 µM | 36 µM | 0.58 | 154 µM | 28 µM | 4.97 | 0.90 | 0.45 | 1 | – | DIFFERENTIAL (LoVo; LoVo, IC50 of 2 relative to Cisplatin): 167.6 µM; DIFFERENTIAL (A2780; A2780 (24 hour)): 168 µM; IC50 (A2780; A2780, 7 days, read-out: IC50 (7 days)): 99.1 µM; DIFFERENTIAL (A2780; A2780): 37.8 µM; DIFFERENTIAL (LS 174T; LS 174T, IC50 of 2 relative to Cisplatin): 72 µM; DIFFERENTIAL (A2780-cis; A2780-cis (24 hour)): 28.5 µM; DIFFERENTIAL (A2780-cis; A2780-cis): 13.3 µM; IC50 (A2780-cis; A2780cis, 7 days, read-out: IC50 (7 days)): 4.3 µM; potency relative to Cp2TiCl2 (times more potent) [2]: around 10 times; IC50 (MCF-7; MCF-7): 62 µM; DIFFERENTIAL (MCF-7; MCF-7, IC50 of 2 relative to Cisplatin): 6.9 µM
